# Source: patent publication US9067914B1, “Tropomyosin-related kinase (TRK) inhibitors” (Genzyme Corporation, priority 2013, dated 2015)
# Structures can show the parent of a compound that is named as a salt. Where two headings read alike, the source gives them in different places.
# Experiments:
# [1] = system: MIA induced osteoarthritis in male Wistar rats; test: Monosodium iodoacetate (MIA) induced osteoarthritis, weight bearing; format: in vivo, rat
# Source text: Male Wistar rats were acclimated to the testing facility for 5 days. The rats were individually housed in micro-isolator shoe-box polycarbonate cages with cob bedding and water bottles. Dry pelleted food of known composition and nutritional components was provided ad libitum
# Animals were randomized by treatment type using an online random number generator. Each treatment group was assigned a number, entered into the random number generator, recorded then translated back to the associated treatment. All injections were given in the left leg unless the treatment indicated “Contralateral” in which case the injection was given in the right leg. Both legs were shaved on all animals at the time of the treatment injections to blind the test administrator.
# The rats were weighed the day prior to injection with monosodium iodoacetate (MIA), the agent used to induce osteoarthritis in the animals. The day of injection, rats from groups 2-8 received a subcutaneous (SC) dose of buprenorphine at least one hour prior to induction. […] Naïve animals were then placed in recovery. All other animals received an injection of MIA. In animals receiving MIA, the hind leg was flexed and an injection of MIA (25 μL) was injected into the intra-articular space using a 27 gauge ½ inch needle. Standard postoperative care was performed (twice daily for 48 hours).
# On Day 8 the test article was administered as described above. On Days −1, 7, 14, 21, 28, and 35 post-induction, weight bearing was assessed. A weight bearing scale was utilized using a plexiglass chamber to assess the amount of weight distributed in each hind limb. The animals were acclimated to the chamber for at least 5 minutes prior to testing and the weight distribution was recorded 5 times.
# The animals were terminated at day 36. Both stifles were collected from each animal; the skin was removed from the joint and the patella was removed while leaving as much of the fat pad intact with the joint. The stifle was placed in the appropriate cassette with rolled gauze to secure the stifle in the cassette and then placed into 4% Paraformaldehyde. These samples were examined histologically.
# [2] = system: PGPS knee arthritis in male Lewis rats; test: Reactivated peptidoglycan-polysaccharide (PGPS) knee arthritis; format: in vivo, rat; conditions: for Gait scores and deficiency, first reactivation / Gait scores and deficiency, second reactivation: significant reduction: male Lewis rats; for Gait scores and deficiency, first reactivation: days 1-4; for Gait scores and deficiency, second reactivation: significant reduction: days 14-18
# Source text: Male Lewis rats were acclimated to the testing facility for 7 days. The rats were housed in 5 per cage in shoe-box polycarbonate cages with wire tops, wood chip bedding and suspended food and water bottles.
# On day −21, the male Lewis rats were randomized into treatment groups by body weight. The rats were anesthetized and injected with peptidoglycan-polysaccharide (PGPS) into the right knee to induce PGPS arthritis. Arthritis was reactivated on days 0 and 14 by an IV tail injection of PGPS.
# The rats were weighed at baseline on days 0, 4, 14 and 18. Knee thickness was measured by caliper at baseline and on days 0, 2, 4, 14, 16 and 18. Gait analysis occurred on days 0-4 and 14-18, with video recording of selected animals on days 3 and 17. Gait analysis was performed by applying ink to the ventral surface of the foot and documenting weight bearing during movement across paper.
# The animals were terminated at day 18. Right knees were removed, trimmed of extraneous tissue, and collected into 10% neutral buffered formalin. After two days in the formalin buffer and three days in 10% formic acid decalcifier, the knees were cut into two approximately equal halves in the frontal plane and processed for paraffin embedding and stained with T.Blue. Histological examinations were subsequently performed for bone resorption, inflammation, pannus and cartilage damage.
# Body weights, gait deficiency and caliper measurements were analyzed using a one-way analysis of variance (1-way ANOVA) with Dunnett's multiple comparison post-test. Gait scores were analyzed using a Kruskal-Wallis test (non-parametric ANOVA) with Dunn's multiple comparison post-test. Histopathology scores were analyzed using a Kruskal-Wallis test (non-parametric ANOVA) with Dunn's multiple comparison post-test.
# TrkB = TrkB (Homo sapiens (Human), UniProt Q16620); test: TrkB activity, off-chip mobility shift assay (LabChip 3000); format: biochemical
# Sequence of TrkB (Q16620 32-822): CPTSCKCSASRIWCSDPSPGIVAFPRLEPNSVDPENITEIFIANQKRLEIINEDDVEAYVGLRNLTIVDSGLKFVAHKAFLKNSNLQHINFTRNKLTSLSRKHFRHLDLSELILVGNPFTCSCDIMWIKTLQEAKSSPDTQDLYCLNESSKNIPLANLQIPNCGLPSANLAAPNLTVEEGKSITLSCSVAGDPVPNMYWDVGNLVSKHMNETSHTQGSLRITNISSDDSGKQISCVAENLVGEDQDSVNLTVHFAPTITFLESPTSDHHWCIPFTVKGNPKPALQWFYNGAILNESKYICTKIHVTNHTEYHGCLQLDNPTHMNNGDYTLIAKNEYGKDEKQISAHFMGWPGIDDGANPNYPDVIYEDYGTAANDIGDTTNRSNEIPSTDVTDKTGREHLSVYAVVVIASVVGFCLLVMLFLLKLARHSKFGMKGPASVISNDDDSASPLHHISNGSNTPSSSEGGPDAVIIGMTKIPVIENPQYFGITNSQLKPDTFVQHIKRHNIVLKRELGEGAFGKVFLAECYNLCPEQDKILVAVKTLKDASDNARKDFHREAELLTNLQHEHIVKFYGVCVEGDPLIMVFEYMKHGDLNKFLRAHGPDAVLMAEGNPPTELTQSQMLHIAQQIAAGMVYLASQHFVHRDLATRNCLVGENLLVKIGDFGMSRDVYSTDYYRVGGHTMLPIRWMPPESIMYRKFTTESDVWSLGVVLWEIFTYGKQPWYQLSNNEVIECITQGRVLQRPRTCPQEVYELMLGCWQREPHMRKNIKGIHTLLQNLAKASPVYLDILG
# Source text: (§1) Reagents and consumables were purchased from Sigma Aldrich, Carna Biosciences, or Caliper Life Sciences. All assay reaction conditions for IC50 determinations were within the linear range with respect to time and enzyme concentration. […] The LabChip 3000 separates and measures the fluorescent signal of fluorescein labeled peptide substrate and fluorescein labeled peptide product present in each well. Results are expressed as percent conversion by measuring peak height for both the substrate and product and dividing the product peak height by the sum of peak heights for both substrate and product.
# TrkA = TrkA (Homo sapiens (Human), UniProt P04629); test: TrkA activity, off-chip mobility shift assay (LabChip 3000); format: biochemical; conditions: 55 μM ATP (ATP Km); n/d = none detected
# Sequence of TrkA (P04629 33-796): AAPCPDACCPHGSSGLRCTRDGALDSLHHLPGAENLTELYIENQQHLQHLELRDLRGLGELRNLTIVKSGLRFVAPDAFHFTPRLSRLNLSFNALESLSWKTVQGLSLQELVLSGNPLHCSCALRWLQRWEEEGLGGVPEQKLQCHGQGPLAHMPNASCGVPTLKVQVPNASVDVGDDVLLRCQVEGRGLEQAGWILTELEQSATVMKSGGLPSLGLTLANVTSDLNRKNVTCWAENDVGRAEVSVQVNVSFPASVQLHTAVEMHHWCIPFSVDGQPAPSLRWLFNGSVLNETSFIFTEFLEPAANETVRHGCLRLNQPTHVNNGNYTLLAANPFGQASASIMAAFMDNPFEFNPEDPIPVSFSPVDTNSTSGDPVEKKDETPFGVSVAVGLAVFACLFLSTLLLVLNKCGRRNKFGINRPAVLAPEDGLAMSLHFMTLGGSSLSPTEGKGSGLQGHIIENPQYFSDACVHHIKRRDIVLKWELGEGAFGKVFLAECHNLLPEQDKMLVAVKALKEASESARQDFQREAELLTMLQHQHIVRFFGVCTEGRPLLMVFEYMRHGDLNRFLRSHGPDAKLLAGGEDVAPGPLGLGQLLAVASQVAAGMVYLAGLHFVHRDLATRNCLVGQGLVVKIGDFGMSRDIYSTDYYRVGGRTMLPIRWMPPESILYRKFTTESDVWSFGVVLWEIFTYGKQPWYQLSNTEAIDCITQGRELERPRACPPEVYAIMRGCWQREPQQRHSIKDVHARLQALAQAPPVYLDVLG
# Source text: as §1
# [3] = intra-articular on day -7 (Triamcinolone 0.06 mg; test compound 1 mg)
# [4] = intra-articular on day -7, 1 mg
# [5] = right knee, day 18, intra-articular on day -7 (Triamcinolone 0.06 mg; test compound 1 mg)
# [6] = 70 μM ATP (ATP Km), n/d = none detected
Compound,IC50 (TrkB; [6]),IC50 (TrkA),further results
"COc1ccc(COc2ccc(Cn3c(N)nc4cc(-c5cnn(C)c5)cnc43)cc2OC)cc1 [Ex. 3-15, 3-(3-Methoxy-4-((4-methoxybenzyl)oxy)benzyl)-6-(1-methyl-1H-pyrazol-4-yl)-3H-imidazo[4,5-b]pyridin-2-amine]",0.1 nM,0.3 nM,"Efficacy (weight bearing) ([1]; 10 μg Contralateral injection on Day 8): efficacy at 3 and 4 weeks following administration; Efficacy (weight bearing) ([1]; 10 μg Ipsilateral injection on Day 8): efficacy was observed at 2 through 4 weeks following administration; Efficacy (weight bearing) ([1]; 30 μg Contralateral injection on Day 8): efficacy at only the 3 week timepoint; Efficacy (weight bearing) ([1]; 30 μg Ipsilateral injection on Day 8): effective throughout the four weeks following administration; Systemic pain relief (weight bearing) ([1]; 100 μg Contralateral injection on Day 8, 1-4 weeks): did not show systemic pain relief at any timepoint; Efficacy (weight bearing) ([1]; 100 μg Ipsilateral injection on Day 8): effective throughout the four weeks following administration; Comparison with MIA/LRS at day 35 (p<0.05) ([1]; Ipsilateral 30 μg): MIA/LRS was significantly worse; Comparison with MIA/LRS at day 35 (p<0.05) ([1]; Ipsilateral 100 μg): MIA/LRS was significantly worse; Body weight results ([1]; male Wistar rats, intra-articular on Day 8): No adverse observations; Histopathology of the knee joint ([1]; stifles collected at day 36): no adverse changes; Knee caliper measurements [2, 3]: significantly reduced on day 14; Reduction of knee caliper AUC [2, 3]: generally unaffected; Reduction of gait scores and deficiency AUC, first reactivation [2, 4]: 92-93%; Reduction of gait scores and deficiency AUC, second reactivation [2, 4]: 85-86%; Reduction of summed AUC for gait deficiency [2, 4]: 84%; Gait scores and deficiency, first reactivation [2, 3]: significant reductions; Gait scores and deficiency, second reactivation: significant reduction [2, 3]: Scores were significantly reduced throughout the second reactivation, and reductions in deficiency were significant on days 15, 17, and 18; Histopathology: reduction in summed scores [2, 5]: 70%; Histopathology: reductions in all parameters (bone resorption, inflammation, pannus, cartilage damage) [2, 5]: 49-94%"
"C[C@]12C=CC(=O)C=C1CC[C@H]1[C@@H]3C[C@@H](O)[C@](O)(C(=O)CO)[C@@]3(C)C[C@H](O)[C@@]12F [Triamcinolone, reference compound]",–,–,"Knee caliper measurements [2, 3]: significantly reduced on days 2, 4, 16, and 18, as well as prior to the first reactivation on day 0; Reduction of knee caliper AUC [2, 3]: 53-106%; Gait scores and deficiency, first reactivation [2, 3]: significantly reduced; Gait scores and deficiency, second reactivation: significant reduction [2, 3]: on day 15, 17, and 18; Histopathology: reduction in summed scores [2, 5]: 74%"
"COc1ccc(COc2ccc(Cn3cnc4cc(N5CCC(C(C)(C)N)CC5)cnc43)cc2OC)cn1 [Ex. 3-18-1, 2-(1-(3-(3-Methoxy-4-((6-methoxypyridin-3-yl)methoxy)benzyl)-3H-imidazo[4,5-b]pyridin-6-yl)piperidin-4-yl)propan-2-amine]",57 nM,54 nM,–
"COc1cc(C(C)n2c(N)nc3cc(-c4cnn(C)c4)cnc32)ccc1OCc1ccc(C(F)(F)F)nc1 (stereo not drawn) [Ex. 3-53, 3-(1-(3-methoxy-4-((6-(trifluoromethyl)pyridin-3-yl)methoxy)phenyl)ethyl)-6-(1-methyl-1H-pyrazol-4-yl)-3H-imidazo[4,5-b]pyridin-2-amine]",0.6 nM,0.4 nM,–
"COc1ccc(C(Oc2ccc(Cn3c(N)nc4cc(-c5cnn(C)c5)cnc43)cc2OC)C2CC2)cn1 (stereo not drawn) [Ex. 3-43, 3-(4-(cyclopropyl(6-methoxypyridin-3-yl)methoxy)-3-methoxybenzyl)-6-(1-methyl-1H-pyrazol-4-yl)-3H-imidazo[4,5-b]pyridin-2-amine]",51 nM,58 nM,–
"COc1cc2c(cn1)C(Oc1ccc(Cn3c(N)nc4cc(-c5cnn(C)c5)cnc43)cc1OC)CCC2 (stereo not drawn) [Ex. 3-44, 3-(3-methoxy-4-((3-methoxy-5,6,7,8-tetrahydroisoquinolin-8-yl)oxy)benzyl)-6-(1-methyl-1H-pyrazol-4-yl)-3H-imidazo[4,5-b]pyridin-2-amine]",41 nM,39 nM,–
"COc1ccc(COc2ccc(Cn3c(N)nc4cc(-c5cncnc5)cnc43)cc2OC)cn1 [Ex. 3-37-3, 3-(3-methoxy-4-((6-methoxypyridin-3-yl)methoxy)benzyl)-6-(pyrimidin-5-yl)-3H-imidazo[4,5-b]pyridin-2-amine]",16 nM,51 nM,–
"COc1ccc(COc2ccc(Cn3cnc4cc(-n5cc(C6CCCNC6)nn5)ccc43)cc2OC)cn1 (stereo not drawn) [Ex. 3-6, 1-(3-Methoxy-4-((6-methoxypyridin-3-yl)methoxy)benzyl)-5-(4-(piperidin-3-yl)-1H-1,2,3-triazol-1-yl)-1H-benzo[d]imidazole]",86 nM,175 nM,–
"COc1cc(Cn2c(N)nc3cc(-c4cnn(C)c4)cnc32)ccc1OCc1ccc(CC(F)(F)F)cc1 [Ex. 3-40-4, 3-(3-methoxy-4-((4-(2,2,2-trifluoroethyl)benzyl)oxy)benzyl)-6-(1-methyl-1H-pyrazol-4-yl)-3H-imidazo[4,5-b]pyridin-2-amine]",0.3 nM,0.2 nM,–
"COc1ccc(COc2ccc(Cn3cnc4cc(N5CCOCC5)ccc43)cc2OC)cn1 [Ex. 3-9, 4-(1-(3-Methoxy-4-((6-methoxypyridin-3-yl)methoxy)benzyl)-1H-benzo[d]imidazol-5-yl)morpholine]",–,793 nM,IC50 (TrkB): 257 nM
"COc1ccc(COc2ccc(Cn3cnc4cc(N5CCN(C6CC6)CC5)cnc43)cc2OC)cn1 [Ex. 3-18-3, 6-(4-Cyclopropylpiperazin-1-yl)-3-(3-methoxy-4-((6-methoxypyridin-3-yl)methoxy)benzyl)-3H-imidazo[4,5-b]pyridine]",52 nM,113 nM,–
"COc1ccc(COc2ccc(Cn3c(N)nc4cc(-c5c(C)nn(C)c5C)cnc43)cc2OC)cn1 [Ex. 3-37-4, 3-(3-methoxy-4-((6-methoxypyridin-3-yl)methoxy)benzyl)-6-(1,3,5-trimethyl-1H-pyrazol-4-yl)-3H-imidazo[4,5-b]pyridin-2-amine]",13 nM,14 nM,–
"COc1cc(Cn2c(N)nc3cc(-c4cnn(C)c4)cnc32)ccc1OCc1ccc(C2CC2)nc1 [Ex. 3-35-4, 3-(4-((6-cyclopropylpyridin-3-yl)methoxy)-3-methoxybenzyl)-6-(1-methyl-1H-pyrazol-4-yl)-3H-imidazo[4,5-b]pyridin-2-amine]",0.2 nM,0.2 nM,–
"COc1ccc(COc2ccc(Cn3c(N)nc4cc(-c5ccncc5)cnc43)cc2OC)cn1 [Ex. 3-37-5, 3-(3-methoxy-4-((6-methoxypyridin-3-yl)methoxy)benzyl)-6-(pyridin-4-yl)-3H-imidazo[4,5-b]pyridin-2-amine]",0.7 nM,2 nM,–
"CCC(Oc1ccc(Cn2c(N)nc3cc(-c4cnn(C)c4)cnc32)cc1OC)c1ccc(OC)nc1 (stereo not drawn) [3-34, 3-(3-methoxy-4-(1-(6-methoxypyridin-3-yl)propoxy)benzyl)-6-(1-methyl-1H-pyrazol-4-yl)-3H-imidazo[4,5-b]pyridin-2-amine]",26 nM,32 nM,–
"COc1ccc(C(C)Oc2ccc(Cn3cnc4cc(-c5ccnc(F)c5)cnc43)cc2OC)cn1 (stereo not drawn) [Ex. 3-58-3, 6-(2-fluoropyridin-4-yl)-3-(3-methoxy-4-(1-(6-methoxypyridin-3-yl)ethoxy)benzyl)-3H-imidazo[4,5-b]pyridine formate]",68 nM,215 nM,–
